In patent US4421767A, “Compounds and methods for treating depression” (priority 1982, dated 1983):

Tested on: brain noradrenaline and 5-HT concentrations
Test: Brain amine concentration, AFHBA with or without carbidopa pretreatment in rats (Table II)
Type: in vivo, rat
Settings: for Brain Amine Concentration, 5-HT / Brain Amine Concentration, Noradrenaline: 5 days
Description: (B) Rats were gavaged with saline or carbidopa given at dosage of 10 or 100 mg/kg. Thirty minutes later, the rats were gavaged with saline or AFHBA given at a dosage of 62.5 μg/kg. This treatment was repeated daily for 5 days. On the 6th day, the rats were anaesthetized and heart rate and blood pressure responses to tyramine (0.3-50 mg/kg, i.d.) were determined. Additionally, monoamines and MAO activity were determined in various tissues, including brain.

[1] = carbidopa 10000 μg/kg + AFHBA 62.5 μg/kg daily p.o.
[2] = carbidopa 100000 μg/kg + AFHBA 62.5 μg/kg daily p.o.
[3] = saline + AFHBA 62.5 μg/kg daily p.o.

NC(C(=O)O)C(=CF)c1cccc(O)c1 (racemic) [AFHBA, 2-Amino-4-fluoro-3-(3'-hydroxyphenyl)-3-butenoic acid]
effect on brain monoamines, combination versus single agents (AFHBA 62.5 μg/kg + carbidopa 10 mg/kg): at least equivalent to 250 μg/kg of AFHBA given alone or to 5000 μg/kg of clorgyline | Brain Amine Concentration, 5-HT [1]: 894 ± 25 ng/g | Brain Amine Concentration, Noradrenaline [1]: 694 ± 24 ng/g | Brain Amine Concentration, 5-HT [2]: 815 ± 35 ng/g | Brain Amine Concentration, Noradrenaline [2]: 327 ± 23 ng/g | Brain Amine Concentration, 5-HT [3]: 531 ± 32 ng/g | Brain Amine Concentration, Noradrenaline [3]: 391 ± 12 ng/g
